test system: MHC class I molecules of T1 cells (human lymphoma cell line 174×CEM.); test: Effect on expression of MHC class I from T1 cells (flow cytometry, MFI); type: cell-based; settings: 3 days culture
Procedure: Effect on Expression of MHC Class I from T1 Cells (Human Lymphoma Cell Line 174×CEM.)
Using a 96-well flat bottom microplate, T1 cells (5.7×10^3 cells/200 μl/well) were cultured in an RPMI 1640 medium (Iwaki Glass) containing 10% fetal bovine serum (hereinafter abbreviated as FBS; Iruvine Scientific) in an incubator containing 5% carbon dioxide at 37° C. for 3 days, in the presence of a test compound having each concentration obtained by dilution at a common ratio route of 10 from 400 μM. After completion of the culture, the cells were stained with fluoroisothiocyanate-labeled mouse anti-human MHC class I monoclonal antibody (an antibody produced from the cell line W6/32 (ATCC No. CRL 1991)). The mean fluorescence intensity of the stained cells (hereinafter referred to as MFI) was measured using flow cytometry FACScan (BD). The obtained value was defined as an expression level of MHC class I molecules. A test compound concentration necessary for suppressing 20% of the expression level of MHC class I molecules (EC20 value) was calculated using the following formula (1).
[formula] • Eexp: MFI of cultured cells containing test compound after being stained with antibody • Cexp: MFI of cultured cells containing no test compounds after being stained with antibody

First: CC(C)NC(=O)Nc1nc2nccc(-c3cccc(OCc4ccncc4)c3)n2n1 [Example 193]
Second: COc1cccc([C@H](C)NC(=O)Nc2nc3nccc(-c4cccc(OCc5ccncc5)c4)n3n2)c1 [Example 203]
The “EC20 (concentration necessary for suppressing 20% of the expression level of MHC class I molecules)” value of the first is 1.6-fold higher: 310 nM for the first, 190 nM for the second.

Compared with `CC(C)NC(=O)Nc1nc2nccc(-c3cccc(OCCCc4ccccc4)c3)n2n1` [Example 194], `COc1cccc([C@H](C)NC(=O)Nc2nc3nccc(-c4cccc(OCCCc5cccnc5)c4)n3n2)c1` [Example 210] is 3.2-fold lower in “EC20 (concentration necessary for suppressing 20% of the expression level of MHC class I molecules)” value: 420 nM for the first, 130 nM for the second.

Going from `COc1cccc([C@H](C)NC(=O)Nc2nc3nccc(-c4cccc(OCc5ccccc5)c4)n3n2)c1` [Example 199] to `COc1cccc([C@H](C)NC(=O)Nc2nc3nccc(-c4ccc(OCc5ccccc5)cc4)n3n2)c1` [Example 222, (S)-1-[7-(4-benzyloxyphenyl)-[1,2,4]triazolo[1,5-a]pyrimidin-2-yl]-3-[1-(3-methoxyphenyl)ethyl]urea], the “EC20 (concentration necessary for suppressing 20% of the expression level of MHC class I molecules)” value falls from 280 nM to 100 nM (2.8-fold).

Compared with `COc1cccc([C@H](C)NC(=O)Nc2nc3nccc(-c4cccc(O)c4)n3n2)c1` [Example 200], `COc1cccc([C@H](C)NC(=O)Nc2nc3nccc(-c4ccc(O)cc4)n3n2)c1` [Example 223, (S)-1-[7-(4-hydroxyphenyl)-[1,2,4]triazolo[1,5-a]pyrimidin-2-yl]-3-[1-(3-methoxyphenyl)ethyl]urea] is 5-fold lower in “EC20 (concentration necessary for suppressing 20% of the expression level of MHC class I molecules)” value: 70 nM for the first, 14 nM for the second.

`COc1cccc([C@H](C)NC(=O)Nc2nc3nccc(-c4cccc(OCc5ccccn5)c4)n3n2)c1` [Example 201] and `COc1cccc([C@H](C)NC(=O)Nc2nc3nccc(-c4cccc(OCCc5ccccn5)c4)n3n2)c1` [Example 208] are within 1.5-fold of each other in “EC20 (concentration necessary for suppressing 20% of the expression level of MHC class I molecules)” value: 160 nM for the first, 180 nM for the second.

First: COc1cccc([C@H](C)NC(=O)Nc2nc3nccc(-c4cccc(OCc5cccnc5)c4)n3n2)c1 [Example 202]
Second: COc1cccc([C@H](C)NC(=O)Nc2nc3nccc(-c4cccc(OCCc5ccncc5)c4)n3n2)c1 [Example 209]
The “EC20 (concentration necessary for suppressing 20% of the expression level of MHC class I molecules)” value of the first is 1.5-fold higher: 60 nM for the first, 40 nM for the second.

`COc1cccc([C@H](C)NC(=O)Nc2nc3nccc(-c4cccc(OCCN5CCOCC5)c4)n3n2)c1.Cl` [Example 204] and `COc1cccc([C@H](C)NC(=O)Nc2nc3nccc(-c4cccc(OCCC5OCCCO5)c4)n3n2)c1` [Example 207] are within 1.5-fold of each other in “EC20 (concentration necessary for suppressing 20% of the expression level of MHC class I molecules)” value: 70 nM for the first, 60 nM for the second.

Compared with `COc1cccc([C@H](C)NC(=O)Nc2nc3nccc(-c4cccc(OCCN(C)C)c4)n3n2)c1` [Example 205], `COc1cccc([C@H](C)NC(=O)Nc2nc3nccc(-c4cccc(OCCCN(C)C)c4)n3n2)c1` [Example 221] is 1.6-fold lower in “EC20 (concentration necessary for suppressing 20% of the expression level of MHC class I molecules)” value: 190 nM for the first, 120 nM for the second.

Compared with `COc1cccc([C@H](C)NC(=O)Nc2nc3nccc(-c4cccc(OCCCc5ccncc5)c4)n3n2)c1` [Example 211], `COCOc1cccc(-c2ccnc3nc(NC(=O)N[C@@H](C)c4cccc(OC)c4)nn23)c1` [Example 212] is 3-fold higher in “EC20 (concentration necessary for suppressing 20% of the expression level of MHC class I molecules)” value: 60 nM for the first, 180 nM for the second.

Compared with `COCCOCOc1cccc(-c2ccnc3nc(NC(=O)N[C@@H](C)c4cccc(OC)c4)nn23)c1` [Example 213], `COCCOCOc1ccc(-c2ccnc3nc(NC(=O)N[C@@H](C)c4cccc(OC)c4)nn23)cc1` [Example 227] is 2.1-fold lower in “EC20 (concentration necessary for suppressing 20% of the expression level of MHC class I molecules)” value: 150 nM for the first, 70 nM for the second.

Compared with `COc1ccc(-c2ccnc3nc(NC(=O)NCc4ccccc4OC)nn23)cc1` [Example 214], `COc1ccc(-c2ccnc3nc(NC(=O)NCc4ccc5c(c4)OCO5)nn23)cc1` [Example 215] is 2.8-fold lower in “EC20 (concentration necessary for suppressing 20% of the expression level of MHC class I molecules)” value: 420 nM for the first, 150 nM for the second.

Going from `COc1ccc(-c2ccnc3nc(NC(=O)N[C@@H](C)C(C)C)nn23)cc1` [Example 216] to `COc1ccc(-c2ccnc3nc(NC(=O)N[C@@H](C)C(C)(C)C)nn23)cc1` [Example 217], the “EC20 (concentration necessary for suppressing 20% of the expression level of MHC class I molecules)” value rises from 160 nM to 320 nM (2-fold).

`COc1ccc(-c2ccnc3nc(NC(=O)N[C@@H](C)C4CCCCC4)nn23)cc1` [Example 218] and `CC[C@H](C)NC(=O)Nc1nc2nccc(-c3ccc(OC)cc3)n2n1` [Example 234] are within 1.5-fold of each other in “EC20 (concentration necessary for suppressing 20% of the expression level of MHC class I molecules)” value: 180 nM for the first, 220 nM for the second.

First: COc1ccc(-c2ccnc3nc(NC(=O)N[C@@H](C)C(C)=O)nn23)cc1 [Example 220]
Second: COC[C@H](C)NC(=O)Nc1nc2nccc(-c3ccc(OC)cc3)n2n1 [Example 237]
The “EC20 (concentration necessary for suppressing 20% of the expression level of MHC class I molecules)” value of the first is 2.9-fold higher: 720 nM for the first, 250 nM for the second.

Going from `COc1cccc([C@H](C)NC(=O)Nc2nc3nccc(-c4ccc(OCC5CCCO5)cc4)n3n2)c1` (some centres unmarked) [Example 224] to `COc1cccc([C@H](C)NC(=O)Nc2nc3nccc(-c4ccc(OCCC5OCCCO5)cc4)n3n2)c1` [Example 225], the “EC20 (concentration necessary for suppressing 20% of the expression level of MHC class I molecules)” value falls from 90 nM to 50 nM (1.8-fold).

Compared with `COCOc1ccc(-c2ccnc3nc(NC(=O)N[C@@H](C)c4cccc(OC)c4)nn23)cc1` [Example 226], `COCCOc1ccc(-c2ccnc3nc(NC(=O)N[C@@H](C)c4cccc(OC)c4)nn23)cc1` [Example 244, (S)-1-{7-[4-(2-methoxyethoxy)phenyl]-[1,2,4]triazolo[1,5-a]pyrimidin-2-yl}-3-[1-(3-methoxyphenyl)ethyl]urea] is 2.6-fold lower in “EC20 (concentration necessary for suppressing 20% of the expression level of MHC class I molecules)” value: 50 nM for the first, 19 nM for the second.

First: COc1cccc([C@H](C)NC(=O)Nc2nc3nccc(-c4ccc(OCC(=O)O)cc4)n3n2)c1 [Example 229]
Second: COc1cccc([C@H](C)NC(=O)Nc2nc3nccc(-c4ccc(N(C)C)cc4)n3n2)c1 [Example 232]
The “EC20 (concentration necessary for suppressing 20% of the expression level of MHC class I molecules)” value of the first is 17-fold higher: 690 nM for the first, 40 nM for the second.

Going from `COCCCC[C@H](C)NC(=O)Nc1nc2nccc(-c3ccc(OC)cc3)n2n1` [Example 233] to `CC(C)CCC[C@H](C)NC(=O)Nc1nc2nccc(-c3ccc(OCc4ccccc4)cc3)n2n1` [Example 245, (S)-1-[7-(4-benzyloxyphenyl)-[1,2,4]triazolo[1,5-a]pyrimidin-2-yl]-3-(1,5-dmethylhexyl)urea], the “EC20 (concentration necessary for suppressing 20% of the expression level of MHC class I molecules)” value rises from 40 nM to 180 nM (4.5-fold).

Compared with `COCCOCCOCCOc1ccc(-c2ccnc3nc(NC(=O)N[C@@H](C)c4cccc(OC)c4)nn23)cc1` [Example 238], `COCCOCCOCCOc1cccc(-c2ccnc3nc(NC(=O)N[C@@H](C)c4cccc(OC)c4)nn23)c1` [Example 239] is 7.3-fold higher in “EC20 (concentration necessary for suppressing 20% of the expression level of MHC class I molecules)” value: 15 nM for the first, 110 nM for the second.

— patent US7598244B2, “[1,2,4]triazolo[1,5,a]pyrimidin-2-ylurea derivative and use thereof” (Nippon Kayaku Kabushiki Kaisha, priority 2003, dated 2009)
